Where no end group is shown, it is not given here.
Legend:
Pseudomonas [1] = experiment: Fluorimetric (edans/dabcyl) protease detection assay with bacterial culture or supernatant in buffer; type: biochemical
Method: (§1) The peptide substrates used here were labeled with the fluorescent probe edans (5-((2-aminoethyl)amino)naphthalene-1-sulphonic acid) and the quencher dye molecule dabcyl((4-(4-(dimethylamino)phenyl)azo)benzoic acid).
(§2) The bacteria were grown in an incubator overnight at 37° C. in 5 ml BHI (Brain Heart Infusion) media. Each of the resulting cultures was split into two samples. One was used as is, and the other was spun down and the supernatant was collected. The assays were run in 20 mM tris buffer (pH 7.4) with 150 mM NaCl added. The reaction was carried out with 7 μl of culture or supernatant and 3 μl peptide substrate (5 mg/ml in water) in 100 μl total volume at 37 C. The reaction was followed on a fluorimetric plate reader using an excitation wavelength of 355 nm and an emission wavelength of 485 nm.
(§3) The first set of experiments was performed by addition of the bacterial culture (media and cells) directly into the assay solution. If the protease is attached to the cell membrane it would not be expected to be found secreted into the media. Thus, the presence of cells would be necessary.
(§4) Bacterial cells used in this assay were grown to stationary phase in Brain Heart Infusion (BHI) medium. Briefly, 7 μl of bacterial culture was incubated with 3 μl of LL 1 peptide substrate and […] of […]). The reaction was followed on a 96 well microtiter plate reader using an excitation an emission wavelength of 355 nm and 538 nm respectively at 37° C. The reaction was monitored for a period of 1 hr. and plotted using the KALEIDAGRAPH software. Buffer, 20 mM Tris buffer (pH 7.4) with 150 mM NaCl.
(§5) The assay was repeated using identical conditions with the peptide LL2.
(§6) Bacterial cells used in this assay were grown to stationary phase in Brain Heart Infusion (BHI) medium. The assay was performed as previously described.

S. pyogenes [2] = experiment: as above; type: biochemical
Method: as §1, §2, §3, §4, §5, §6

Serratia = experiment: Fluorimetric (edans/dabcyl) protease detection assay with bacterial culture in buffer; type: biochemical; details: Serratia bacterial culture (media and cells), 37 C, 1 hr
Method: as §1, §2
The first set of experiments was performed by addition of the bacterial culture (media and cells) directly into the assay solution. If the protease is attached to the cell membrane it would not be expected to be found secreted into the media. […]
Bacterial cells used in this assay were grown to stationary phase in Brain Heart Infusion (BHI) medium. […] The reaction was followed on a 96 well microtiter plate reader using an excitation an emission wavelength of 355 nm and 538 nm respectively at 37° C. The reaction was monitored for a period of 1 hr. and plotted using the KALEIDAGRAPH software. […]

Pseudomonas [3] = experiment: Porcine wound fluid protease assay; type: biochemical
Method: (§7) In order to test for cross reactivity in a wound, the assays were performed under physiologically relevant conditions. The assay for LL1 and LL2 were tested using porcine wound fluid extract in place of reaction buffer.
(§8) Immediately after surgery to create partial thickness wounds for the sensor study a gauze dressing was placed on the wound. After a time the dressing was removed, bagged, and placed in a freezer at −80 C. Absorbed wound fluid was recovered from the dressing by incubation in 10 mls buffer (0.1M Tris-HCl, pH 7.4 with 0.1% TRITON X-100® non-ionic surfactant (Octylphenol ethylene oxide condensate; Sigma Aldrich, St. Louis, Mo.). The dressing was incubated on both sides for 2 hours at room temperature and squeezed out. The fluid obtained was aliquoted out and frozen at −20 C.
as §2, with “was” for “was split into two samples. One was used as is, and the other was”, “freshly thawed wound fluid.” for “20 mM tris buffer (pH 7.4) with 150 mM NaCl added.”
(§9) The protease assay was run using the LL2 peptide previously identified as a substrate for S. pyogenes and Pseudomonas.
(§10) Bacterial cells used in this assay were grown to stationary phase in Brain Heart Infusion […] medium. Briefly, 5 μl of bacterial culture was incubated with 3 μl of LL2 peptide substrate and 92 μl of sterile wound fluid. The reaction was followed on a 96 well microtiter plate reader using an excitation an emission wavelength of 355 nm and 538 nm respectively at 37° C. The reaction was monitored for a period of 1 h and plotted using the KALEIDAGRAPH software.

S. pyogenes [4] = experiment: Porcine wound fluid protease assay; type: biochemical; details: S. pyogenes bacterial supernatant in porcine wound fluid
Method: as §7, §8
as §2, with “was” for “was split into two samples. One was used as is, and the other was”, “freshly thawed wound fluid.” for “20 mM tris buffer (pH 7.4) with 150 mM NaCl added.”
as §9, §10

[5] = test system: proteinases secreted by Proteus mirabilis; details: in vitro; cited from earlier work
[6] = test system: proteinases secreted by Pseudomonas aeruginosa; details: in vitro; cited from earlier work
[7] = test system: proteinases secreted by Streptococcus pyogenes; details: in vitro; cited from earlier work
[8] = test system: proteinases secreted by Enterococcus faecalis; details: in vitro; cited from earlier work
[9] = Pseudomonas bacterial culture (media and cells), buffer, 37 C, 1 hr
[10] = Pseudomonas bacterial supernatant, compared with culture with cells
[11] = S. pyogenes bacterial culture (media and cells), buffer, 37 C, 1 hr

Substance | protease activity on peptide substrate (fluorescence) (Pseudomonas [1]; [9]) | protease activity on peptide substrate (fluorescence) (Pseudomonas [1]; [10]) | protease activity on peptide substrate (fluorescence) (S. pyogenes [2]; [11]) | protease activity on peptide substrate (fluorescence) (S. pyogenes [2]; S. pyogenes bacterial supernatant, compared with culture with cells) | protease activity on peptide substrate (fluorescence) (Serratia) | protease activity on peptide substrate (fluorescence) (Pseudomonas [3]; Pseudomonas bacterial culture in sterile porcine wound fluid, 37 C, 1 h) | protease activity on peptide substrate (fluorescence) (Pseudomonas [3]; Pseudomonas bacterial supernatant in porcine wound fluid) | protease activity on peptide substrate (fluorescence) (S. pyogenes [4]) | specificity of peptide substrate (S. pyogenes [2]; FIG. 3 legend) | degradation of peptide by secreted proteinases [5] | degradation of peptide by secreted proteinases [6] | degradation of peptide by secreted proteinases [7] | degradation of peptide by secreted proteinases [8]
LL1: peptide substrate, variant of LL-37 encompassing its cleavage sites, labeled with fluorescent probe edans and quencher dabcyl (FIG. 1B) (KEKIGKEFKRIVQE; also: labeled with edans and dabcyl) | Some protease activity | reduced | Some protease activity | similar | a small amount of activity |  |  |  |  |  |  |  | 
LL2: peptide substrate, variant of LL-37 encompassing its cleavage sites, labeled with fluorescent probe edans and quencher dabcyl (FIG. 1C) (KVQRIKDFLRNLVE; also: labeled with edans and dabcyl) | overall reactivity appears to be reduced somewhat | reduced | overall reactivity appears to be reduced somewhat |  |  | did not have any activity above the background | same results | same results | specific for S. pyogenes |  |  |  | 
LLGDFFRKSKEKIGKE FKRIVQRIKDFLRNLVPRTES [LL-37] |  |  |  |  |  |  |  |  |  | degrade | degrade | degrade | degrade
